In ChEMBL document CHEMBL1158418, “Privileged structure-guided synthesis of quinazoline derivatives as inhibitors of trypanothione reductase” (Bioorg Med Chem Lett, 2009):
The source made the active and inactive calls. No cut-off for these calls is given here.

Assays:
[1] = biological target: Trypanothione reductase (Trypanosoma cruzi) (UniProt P28593); assay: Inhibition of Trypanosoma cruzi recombinant trypanothione reductase at 100 uM by spectrophotometry using 100 uM trypanothione disulfide
[2] = biological target: Trypanothione reductase (Trypanosoma cruzi) (UniProt P28593); assay: Inhibition of Trypanosoma cruzi recombinant trypanothione reductase at 100 uM by spectrophotometry using 50 uM trypanothione disulfide
Trypanosoma cruzi = assay: Antitrypanosomal activity against Trypanosoma cruzi amastigotes infected in rat L6 cells; assay type: functional, organism-based
[3] = system: Trypanosoma brucei rhodesiense; assay: Antitrypanosomal activity against Trypanosoma brucei rhodesiense bloodstream trypomastigotes; assay type: functional, organism-based
Leishmania donovani = assay: Antileishmanial activity against Leishmania donovani axenic amastigotes; assay type: functional, organism-based
Plasmodium falciparum = assay: Antiplasmodial activity against intraerythrocytic form of Plasmodium falciparum; assay type: functional, organism-based
L6 = assay: Cytotoxicity against rat L6 cells; assay type: cell-based
Trypanothione reductase [4] = biological target: T1, Trypanothione reductase (Trypanosoma cruzi, UniProt P28593); assay: Inhibition of Trypanosoma cruzi recombinant trypanothione reductase by spectrophotometry-based non competitive inhibition type assay
T1 sequence (P28593 whole entry): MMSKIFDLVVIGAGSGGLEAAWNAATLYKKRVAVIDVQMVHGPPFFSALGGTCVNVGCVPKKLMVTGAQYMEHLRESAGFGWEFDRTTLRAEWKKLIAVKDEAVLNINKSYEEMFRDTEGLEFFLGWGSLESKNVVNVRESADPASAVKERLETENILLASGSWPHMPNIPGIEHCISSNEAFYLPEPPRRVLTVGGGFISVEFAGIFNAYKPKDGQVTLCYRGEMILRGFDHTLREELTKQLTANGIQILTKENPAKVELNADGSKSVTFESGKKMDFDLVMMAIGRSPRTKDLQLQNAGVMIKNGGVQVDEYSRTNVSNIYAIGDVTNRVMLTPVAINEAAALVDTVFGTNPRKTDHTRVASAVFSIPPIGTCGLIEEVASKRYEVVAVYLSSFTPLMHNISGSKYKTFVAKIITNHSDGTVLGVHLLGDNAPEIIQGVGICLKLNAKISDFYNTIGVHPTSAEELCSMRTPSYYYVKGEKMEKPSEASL

Trypanothione reductase [5] = biological target: T1, Trypanothione reductase; assay: Inhibition of Trypanosoma cruzi recombinant trypanothione reductase by spectrophotometry-based mixed inhibition type assay
[6] = biological target: Trypanothione reductase (Trypanosoma cruzi) (UniProt P28593); assay: Inhibition of Trypanosoma cruzi recombinant trypanothione reductase at 25 uM by spectrophotometry using 100 uM trypanothione disulfide
[7] = biological target: Trypanothione reductase (Trypanosoma cruzi) (UniProt P28593); assay: Inhibition of Trypanosoma cruzi recombinant trypanothione reductase at 25 uM by spectrophotometry using 50 uM trypanothione disulfide
Trypanothione reductase [8] = biological target: T1, Trypanothione reductase; assay: Inhibition of Trypanosoma cruzi recombinant trypanothione reductase by spectrophotometry
[9] = biological target: T2, Glutathione reductase, mitochondrial (Homo sapiens) (UniProt P00390); assay: Inhibition of human glutathione reductase at 10 uM by spectrophotometry in presence of 100 uM GSSG
T2 sequence (whole entry): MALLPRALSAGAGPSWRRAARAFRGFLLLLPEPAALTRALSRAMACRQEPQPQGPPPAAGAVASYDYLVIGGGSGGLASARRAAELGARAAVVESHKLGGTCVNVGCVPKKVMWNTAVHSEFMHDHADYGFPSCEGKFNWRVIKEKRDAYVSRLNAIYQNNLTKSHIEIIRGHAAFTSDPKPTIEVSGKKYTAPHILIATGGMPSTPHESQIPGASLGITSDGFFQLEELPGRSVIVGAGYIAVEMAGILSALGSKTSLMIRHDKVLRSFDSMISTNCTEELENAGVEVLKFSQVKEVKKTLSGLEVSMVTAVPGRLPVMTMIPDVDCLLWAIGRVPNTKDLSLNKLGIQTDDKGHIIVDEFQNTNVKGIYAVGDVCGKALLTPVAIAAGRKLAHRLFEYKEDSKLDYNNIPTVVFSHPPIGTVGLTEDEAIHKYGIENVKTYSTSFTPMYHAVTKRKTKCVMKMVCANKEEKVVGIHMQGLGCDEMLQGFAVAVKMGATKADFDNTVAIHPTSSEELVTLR

Chain of Trypanothione reductase (Trypanosoma cruzi) (P28593 whole entry, looked up): as the sequence (P28593 whole entry) above

SMILES | inhibition [1] | inhibition [2] | IC50 (Trypanosoma cruzi) | IC50 [3] | IC50 (Leishmania donovani) | IC50 (Plasmodium falciparum) | Ki (Trypanothione reductase [4]) | Ki (Trypanothione reductase [5]) | inhibition [6] | inhibition [7] | Ki (Trypanothione reductase [8]) | inhibition [9] | IC50 (L6)
COC1=CC(=O)C=C(N2CCN(c3nc(N)c4cc(OC)c(OC)cc4n3)CC2)C1=O | 75% | 69% | 35.6 µM | 1.98 µM | 45.7 µM | 3.01 µM | 32 µM |  |  |  |  |  | 52.5 µM
COc1cc(C(=N)NC2CCC(CC3CCC(/N=C(\N)c4ccc(OCc5ccccc5)c(OC)c4)CC3)CC2)ccc1OCc1ccccc1 (stereo not drawn) |  |  |  |  |  |  |  | 16 µM |  |  |  |  | 
COc1cc2nc(N3CCN(C(=O)Cc4c[nH]c5ccccc45)CC3)nc(N)c2cc1OC | 23% | 13% | 10.2 µM | 2.21 µM | 42.2 µM | 1.35 µM |  |  |  |  |  |  | 19.6 µM
CN(C)CCOc1cc2nc(N3CCN(C4=CC(=O)c5ccccc5C4=O)CC3)nc(N)c2cc1OCCN(C)C |  |  |  |  |  |  | 11 µM |  |  |  |  |  | 
COc1cc2nc(N3CCN(C(=O)[C@H]4Cc5ccccc5CN4)CC3)nc(N)c2cc1OC | 0% | 0% | 27.6 µM | 5.37 µM | > 67 µM | 1.24 µM |  |  |  |  |  |  | 37.2 µM

The next lines start with results.

inhibition [1] | inhibition [2] | IC50 (Trypanosoma cruzi) | IC50 [3] | IC50 (Leishmania donovani) | IC50 (Plasmodium falciparum) | Ki (Trypanothione reductase [4]) | Ki (Trypanothione reductase [5]) | inhibition [6] | inhibition [7] | Ki (Trypanothione reductase [8]) | inhibition [9] | SMILES | IC50 (L6)
0% | 0% | 14.3 µM | 1.81 µM | > 67 µM | 2.1 µM |  |  |  |  |  |  | COc1cc2nc(N3CCN(C(=O)[C@@H]4Cc5ccccc5CN4)CC3)nc(N)c2cc1OC | 14.2 µM
 |  | 3.68 µM | 0.12 µM | 1.78 µM | 0.53 µM |  | 22 µM | 57% | 53% | 7.5 µM | inactive | COc1cc2nc(N3CCN(C4=CC(=O)c5ccccc5C4=O)CC3)nc(N)c2cc1OC | 2.76 µM
33% | 44% | > 50 µM | 21.8 µM | > 54 µM | 2.19 µM |  |  |  |  |  |  | CN(C)CCOc1cc2nc(N3CCN(C(=O)Cc4c[nH]c5ccccc45)CC3)nc(N)c2cc1OCCN(C)C | > 161 µM
